Like-named read-outs stand apart in the source and are kept apart here.
Assays:
[1] = system: wheat leaf blight; assay: Leaf blotch control effect on wheat, foliar spray treatment; conditions: wettable powder foliar spray 1,000 L/ha, thirty days after inoculation
Description: After blow drying the sprayed leaves, the plants were sprinkled and inoculated with wheat leaf blight. Thirty days after inoculation, the morbidity of the wheat to powdery mildew was evaluated according to the criteria shown in Table 3, and the preventative value was calculated using the following equation. When the average morbidity of the sprayed plot was higher than the average morbidity of the unsprayed plot, the preventative value was 0%. Preventative value (%)=(1−(average morbidity of the sprayed plot/average morbidity of the unsprayed plot))×100.

[2] = system: Microdochium nivale; assay: Antifungal test for pathogens (PDA plate), M.n; format: cell-based; conditions: PDA plate medium
[3] = system: Sclerotinia sclerotiorum; assay: Antifungal test for pathogens (PDA plate), S.s; format: cell-based; conditions: PDA plate medium
[4] = system: wheat brown rust; assay: Brown rust control effect on wheat, seed treatment; format: in vivo; conditions: sixteen days after inoculation
Description: A pot test was performed to evaluate the brown rust controlling effect on wheat using seed treatment. Compound (1(−)) or Compound (1(+)) was dissolved in DMSO so the treatment amount was 20 g ai/100 kg seeds or 2 g ai/100 kg seeds, and the solution was smeared on wheat seeds in a vial, and eight wheat seeds were seeded in a 80 cm^2 pot. These were irrigated from below in a greenhouse. Fifteen days after seeding, the seedlings were inoculated with wheat brown rust and then kept for two days in a box. These were again irrigated from below in a greenhouse.

[5] = system: Pyricularia oryzae; format: cell-based; conditions: PDA plate medium
[6] = system: Alternaria alternata; assay: Antifungal test for pathogens (PDA plate), A.m; format: cell-based; conditions: PDA plate medium
[7] = system: Botrytis cinerea; assay: Antifungal test for pathogens (PDA plate), B.c; format: cell-based; conditions: PDA plate medium
[8] = system: Gaeumannomyces graminis; assay: Antifungal test for pathogens (PDA plate), G.g; format: cell-based; conditions: PDA plate medium
[9] = system: Rhynchosporium secalis; assay: Antifungal test for pathogens (PDA plate), R.sec; format: cell-based; conditions: PDA plate medium
[10] = system: Fusarium oxysporum; assay: Antifungal test for pathogens (PDA plate), F.c; format: cell-based; conditions: PDA plate medium
[11] = system: Botrytis cinerea; assay: Gray mold disease control effect on cucumbers, foliar spray treatment; format: in vivo; conditions: cucumber gray mold, wettable powder foliar spray 1,000 L/ha, four days after inoculation
[12] = system: various pathogenic filamentous fungi other than wheat leaf blight; format: cell-based; conditions: 10 mg/L, PDA plate; all 13 fungi: wheat blight, barley stripe, wheat fusarium, barley loose smut, rice blast, rice sheath blight, rice bakanae, apple leaf spot, Botrytis cinerea, cucumber vine crack, citrus blue mold, sugar beet brown spot, barley cloud fungus
[13] = system: Pyrenophora graminea; assay: Antifungal test for pathogens (PDA plate), P.g; format: cell-based; conditions: PDA plate medium
[14] = system: Gibberella fujikuroi; assay: Antifungal test for pathogens (PDA plate), G.f; format: cell-based; conditions: PDA plate medium
[15] = system: Rhizopus oryzae; assay: Antifungal test for pathogens (PDA plate), R.o; format: cell-based; conditions: PDA plate medium
[16] = system: wheat; assay: Phytotoxicity evaluation of growth inhibition of wheat seeds, seed treatment; format: in vivo; conditions: fifteen days after seeding, untreated 21 cm
Description: A pot test was used to perform a phytotoxicity evaluation of growth inhibition using a seed treatment. Compound (1(−)) or Compound (1(+)) was dissolved in DMSO so the treatment amount was 2 or 20 g ai/100 kg seeds, and the solution was smeared on wheat seeds in a vial, and eight wheat seeds were seeded in a 80 cm^2 pot. These were irrigated from below in a greenhouse. Fifteen days after seeding, the length of the wheat was evaluated.

[17] = system: Phaeosphaeria nodorum; assay: Antifungal test for pathogens (PDA plate), P.n; format: cell-based; conditions: PDA plate medium
[18] = system: Penicillium italicum; assay: Antifungal test for pathogens (PDA plate), P.i; format: cell-based; conditions: PDA plate medium
[19] = system: wheat leaf rust; assay: Rust control effect on wheat, foliar spray treatment; format: in vivo; conditions: wettable powder foliar spray 1,000 L/ha, twelve days after inoculation
[20] = system: Rhizoctonia solani; assay: Antifungal test for pathogens (PDA plate), R.s; format: cell-based; conditions: PDA plate medium
[21] = system: Cercospora beticola; assay: Antifungal test for pathogens (PDA plate), C.b; format: cell-based; conditions: PDA plate medium
[22] = system: Wheat leaf blight (Septoria tritici); assay: Antifungal test against wheat leaf blight (PDA plate); conditions: 19 days at 25° C.
Description: Wheat leaf blight (Septoria tritici) cultured beforehand in a medium plate was punched out with a 4 mm-diameter cork borer, and inoculated in the plate media containing the agent. After inoculation, they were cultured for 19 days at 25° C., and the growth of the fungus was determined by the diameter of the growth. The growth rate of the fungus in the plate media containing the agent was compared to the growth rate of the fungus in the plate medium not containing the agent, and the filamentous fungi inhibition rate was determined using the following equation. In the equation, R is the filamentous fungi inhibition rate (%), dc is the diameter of the fungal growth in the untreated plate media, and dt is the diameter of the fungal growth in the treated plate media. R=100(dc−dt)/dc

[23] = system: Pseudocercoporella herpotrichoides; assay: Antifungal test for pathogens (PDA plate), P.h; format: cell-based; conditions: PDA plate medium
[24] = system: Glomerella cingurata; assay: Antifungal test for pathogens (PDA plate), G.c; format: cell-based; conditions: PDA plate medium
[25] = system: Fusarium graminearum; format: cell-based; conditions: PDA plate medium
[26] = system: Ustilago nuda; assay: Antifungal test for pathogens (PDA plate), U.n; format: cell-based; conditions: PDA plate medium
[27] = system: powdery mildew; assay: Powdery mildew control effect on wheat, foliar spray treatment; format: in vivo; conditions: wettable powder foliar spray 1,000 L/ha, seven days after inoculation

With `COC(=O)[C@]1(C)CC[C@H](Cc2ccc(Cl)cc2)[C@@]1(O)Cn1cncn1` (relative stereo) [Compound (1(+)), (1,2-cis, 1,3-cis)-3-(4-chlorobenzyl)-2-hydroxy-1-methyl-2-(1H-1,2,4-triazole-1-ylmethyl)cyclopentanecarboxylic acid methyl ester] the “Preventative Value (%)” value ([1]; sample conc. 12.5 mg/L) was 67.5%, the “Preventative Value (%)” value ([1]; sample conc. 50 mg/L) was 77.5% and the “Antifungal Index of Each Strain M.n” value ([2]; Sample Conc. 1.25 mg/L) was 1 (<60%). For the same compound, the “Antifungal Index of Each Strain M.n” value ([2]; Sample Conc. 2.5 mg/L) was 1 (<60%), the “Antifungal Index of Each Strain M.n” value ([2]; Sample Conc. 5 mg/L) was 1 (<60%) and the “Antifungal Index of Each Strain S.s” value ([3]; Sample Conc. 1.25 mg/L) was 1 (<60%). For the same compound, the “Antifungal Index of Each Strain S.s” value ([3]; Sample Conc. 2.5 mg/L) was 1 (<60%), the “Antifungal Index of Each Strain S.s” value ([3]; Sample Conc. 5 mg/L) was 1 (<60%) and the “Preventative Value (%)” value ([4]; seed treatment 2 g ai/100 kg seeds) was 0%. The “Preventative Value (%)” value ([4]; seed treatment 20 g ai/100 kg seeds) was 5%, the “Antifungal Index of Each Strain P.o” value ([5]; Sample Conc. 1.25 mg/L) was 1 (<60%) and the “Antifungal Index of Each Strain P.o” value ([5]; Sample Conc. 2.5 mg/L) was 2 (70%-60%). The “Antifungal Index of Each Strain P.o” value ([5]; Sample Conc. 5 mg/L) was 5 (>90%), the “Antifungal Index of Each Strain A.m” value ([6]; Sample Conc. 1.25 mg/L) was 1 (<60%) and the “Antifungal Index of Each Strain A.m” value ([6]; Sample Conc. 2.5 mg/L) was 2 (70%-60%). For the same compound, the “Antifungal Index of Each Strain A.m” value ([6]; Sample Conc. 5 mg/L) was 3 (80%-70%), the “Antifungal Index of Each Strain B.c” value ([7]; Sample Conc. 1.25 mg/L) was 1 (<60%) and the “Antifungal Index of Each Strain B.c” value ([7]; Sample Conc. 2.5 mg/L) was 1 (<60%). For the same compound, the “Antifungal Index of Each Strain B.c” value ([7]; Sample Conc. 5 mg/L) was 4 (90%-80%), the “Antifungal Index of Each Strain G.g” value ([8]; Sample Conc. 1.25 mg/L) was 1 (<60%) and the “Antifungal Index of Each Strain G.g” value ([8]; Sample Conc. 2.5 mg/L) was 2 (70%-60%). For the same compound, the “Antifungal Index of Each Strain G.g” value ([8]; Sample Conc. 5 mg/L) was 4 (90%-80%), the “Antifungal Index of Each Strain R.sec” value ([9]; Sample Conc. 0.08 mg/L) was 3 (80%-70%) and the “Antifungal Index of Each Strain R.sec” value ([9]; Sample Conc. 0.16 mg/L) was 5 (>90%). The “Antifungal Index of Each Strain R.sec” value ([9]; Sample Conc. 0.31 mg/L) was 5 (>90%), the “Antifungal Index of Each Strain R.sec” value ([9]; Sample Conc. 0.63 mg/L) was 5 (>90%) and the “Antifungal Index of Each Strain F.c” value ([10]; Sample Conc. 1.25 mg/L) was 2 (70%-60%). For the same compound, the “Antifungal Index of Each Strain F.c” value ([10]; Sample Conc. 2.5 mg/L) was 3 (80%-70%), the “Antifungal Index of Each Strain F.c” value ([10]; Sample Conc. 5 mg/L) was 4 (90%-80%) and the “Preventative Value (%)” value ([11]; sample conc. 12.5 mg/L) was 0%. The “Preventative Value (%)” value ([11]; sample conc. 50.0 mg/L) was 17.6%, the “filamentous fungi inhibition rate R” value [12] was no less than 80% and the “Antifungal Index of Each Strain P.g” value ([13]; Sample Conc. 0.08 mg/L) was 1 (<60%). For the same compound, the “Antifungal Index of Each Strain P.g” value ([13]; Sample Conc. 0.16 mg/L) was 1 (<60%), the “Antifungal Index of Each Strain P.g” value ([13]; Sample Conc. 0.31 mg/L) was 4 (90%-80%) and the “Antifungal Index of Each Strain P.g” value ([13]; Sample Conc. 0.63 mg/L) was 5 (>90%). For the same compound, the “Antifungal Index of Each Strain G.f” value ([14]; Sample Conc. 1.25 mg/L) was 1 (<60%), the “Antifungal Index of Each Strain G.f” value ([14]; Sample Conc. 2.5 mg/L) was 2 (70%-60%) and the “Antifungal Index of Each Strain G.f” value ([14]; Sample Conc. 5 mg/L) was 3 (80%-70%). For the same compound, the “Antifungal Index of Each Strain R.o” value ([15]; Sample Conc. 1.25 mg/L) was 1 (<60%), the “Antifungal Index of Each Strain R.o” value ([15]; Sample Conc. 2.5 mg/L) was 1 (<60%) and the “Antifungal Index of Each Strain R.o” value ([15]; Sample Conc. 5 mg/L) was 1 (<60%). For the same compound, the “Average Plant Length (cm)” value ([16]; wheat seed treatment 2 g ai/100 kg seeds) was 22 cm, the “Average Plant Length (cm)” value ([16]; wheat seed treatment 20 g ai/100 kg seeds) was 14 cm and the “Antifungal Index of Each Strain P.n” value ([17]; Sample Conc. 1.25 mg/L) was 2 (70%-60%). The “Antifungal Index of Each Strain P.n” value ([17]; Sample Conc. 2.5 mg/L) was 2 (70%-60%), the “Antifungal Index of Each Strain P.n” value ([17]; Sample Conc. 5 mg/L) was 2 (70%-60%) and the “Antifungal Index of Each Strain P.i” value ([18]; Sample Conc. 0.08 mg/L) was 1 (<60%). The “Antifungal Index of Each Strain P.i” value ([18]; Sample Conc. 0.16 mg/L) was 1 (<60%), the “Antifungal Index of Each Strain P.i” value ([18]; Sample Conc. 0.31 mg/L) was 1 (<60%) and the “Antifungal Index of Each Strain P.i” value ([18]; Sample Conc. 0.63 mg/L) was 2 (70%-60%). The “Preventative Value (%)” value ([19]; sample conc. 0.8 mg/L) was 0%, the “Preventative Value (%)” value ([19]; sample conc. 3.1 mg/L) was 0% and the “Antifungal Index of Each Strain R.s” value ([20]; Sample Conc. 1.25 mg/L) was 2 (70%-60%). The “Antifungal Index of Each Strain R.s” value ([20]; Sample Conc. 2.5 mg/L) was 2 (70%-60%), the “Antifungal Index of Each Strain R.s” value ([20]; Sample Conc. 5 mg/L) was 4 (90%-80%) and the “Antifungal Index of Each Strain C.b” value ([21]; Sample Conc. 0.08 mg/L) was 1 (<60%). The “Antifungal Index of Each Strain C.b” value ([21]; Sample Conc. 0.16 mg/L) was 2 (70%-60%), the “Antifungal Index of Each Strain C.b” value ([21]; Sample Conc. 0.31 mg/L) was 3 (80%-70%) and the “Antifungal Index of Each Strain C.b” value ([21]; Sample Conc. 0.63 mg/L) was 4 (90%-80%). The “Antifungal Index” value ([22]; sample conc. 0.31 mg/L) was 3 (80%-70%), the “Antifungal Index” value ([22]; sample conc. 0.63 mg/L) was 3 (80%-70%) and the “Antifungal Index” value ([22]; sample conc. 1.25 mg/L) was 5 (>90%). For the same compound, the “Antifungal Index of Each Strain P.h” value ([23]; Sample Conc. 1.25 mg/L) was 1 (<60%), the “Antifungal Index of Each Strain P.h” value ([23]; Sample Conc. 2.5 mg/L) was 1 (<60%) and the “Antifungal Index of Each Strain P.h” value ([23]; Sample Conc. 5 mg/L) was 1 (<60%). For the same compound, the “Antifungal Index of Each Strain G.c” value ([24]; Sample Conc. 1.25 mg/L) was 1 (<60%), the “Antifungal Index of Each Strain G.c” value ([24]; Sample Conc. 2.5 mg/L) was 1 (<60%) and the “Antifungal Index of Each Strain G.c” value ([24]; Sample Conc. 5 mg/L) was 2 (70%-60%). For the same compound, the “Antifungal Index of Each Strain F.g” value ([25]; Sample Conc. 1.25 mg/L) was 1 (<60%), the “Antifungal Index of Each Strain F.g” value ([25]; Sample Conc. 2.5 mg/L) was 1 (<60%) and the “Antifungal Index of Each Strain F.g” value ([25]; Sample Conc. 5 mg/L) was 2 (70%-60%). For the same compound, the “Antifungal Index of Each Strain U.n” value ([26]; Sample Conc. 1.25 mg/L) was 2 (70%-60%), the “Antifungal Index of Each Strain U.n” value ([26]; Sample Conc. 2.5 mg/L) was 3 (80%-70%) and the “Antifungal Index of Each Strain U.n” value ([26]; Sample Conc. 5 mg/L) was 4 (90%-80%). The “Preventative Value (%)” value ([27]; sample conc. 12.5 mg/L) was 24% and the “Preventative Value (%)” value ([27]; sample conc. 50.0 mg/L) was 94%.

Source: patent publication US9278941B2, “Azole derivative and uses thereof” (Kureha Corporation, priority 2011, dated 2016)
